Measured values taken from US9770430B2, “Desferrioxamine-metal complexes for the treatment of immune-related disorders” (priority 2009, dated 2017).

Assays:
lens proteins = test: Lens proteins of high energy diet fed sand rats (total protein, Trx, TrxR, actin, Msr activity, ferritin); type: in vivo, sand rat (Psammomis obesus)
Method: (§1) Ferritin concentration was quantified using an indirect ‘sandwich’ ELISA assay in accordance with a procedure developed previously in our laboratory. Briefly, ELISA 96-well micro plates were pre-coated with goat anti-human L-ferritin antibody. Rabbit anti-human H-ferritin was used as the secondary antibody. Plates were treated with goat anti-rabbit IgG conjugated with β-galactosidase. Chlorophenol Red-β-D-Galactopyranoside was then added and the plates analyzed using a microplate reader with a test (570 nm) and reference (630 nm) filters.
Quantification of the activity of methionine-sulfoxide reductase (Msr) was carried out by incubation the tissue lysates with dabsyl-methionine sulfoxide for 30 min at 37° C., followed by analysis of the reduced product (dabsyl methionine) by HPLC-spectrophotometric detection at 436 nm Assay: total volume 100 μl, including 200 μM Dabsyl-met (O) (as a substrate). The reaction mixture contained also 20 mM DTT, buffer, ˜100 μg protein. The incubation (reaction) was stopped by adding 100 μl of acetonitrile, spinning down, and discarding the protein fraction. The chromatography was run on a 150 mm 3 μm C-18 column, using a gradient (A to B). A=19 g of sodium acetate, pH 6.0 plus 0.5 ml of triethylamine, in one liter of solution; B=acetonitrile (pure). The substrate, dabsyl-Met (0) was prepared as described [Moskovitz, J. et al. (2001) Proc Natl Acad Sci USA, 98 (23): p. 12920-5; Moskowitz et al. (1997) Proc Natl Acad Sci USA, 94 (18): p. 9585-93].
(§2) Nineteen sand rats were divided into three groups. Group I (n=4) received a standard diet and was used as a control. Groups II (n=7) and III (n=8) received a high energy diet, leading to diabetes development. Group III was treated with 2.5 mg Zn-DFO i.p. per kg body weight three times a week, while Group II was injected with saline according to the same pattern. After the blood glucose and body weight monitoring for 63 days, glucose tolerance test was performed and blood level of 2,3-DHBA and catechols was also measured. As previously done, cataract formation was tested as well. The retina and lens were collected for biochemical analysis of the concentration of ferritin, thioredoxin-1 (Trx) and thioredoxin reductase-1 (TrxR), total lens protein and methionine sulfoxide reductase (Msr) activity. The concentration of actin, Trx and TrxR were measured by Western Blotting, and the activity of Msr was analyzed by HPLC as described.

ovalbumin-induced asthma [1] = test: Ovalbumin-induced asthma, prophylactic treatment model (lung ferritin); type: in vivo, BALB/c mice; details: asthmatic mice, 1 and 0.3 mg/kg i.p., then 0.3 mg/kg i.n.
Method: as §1
• Twelve-week-old Balb/c mice were administered 10 μg (100 μl) ovalbumin (OVA) dissolved with 3 mg Al(OH)3 in 0.9% saline intraperitoneally (i.p.) on days 0, 7 and 14, and 10 μg (50 μl) OVA intranasally (i.n.) on days 20, 23, 25, 27, 29, 31, 34, 36, 37, 41, 43 and 45. […]
(§3) To estimate the anti-asthmatic effect of the complexes the following parameters were measured: the concentration of ferritin in the lungs, the presence of inflammatory cells infiltration into the lungs, and the amounts of macrophages, eosinophils, lymphocytes and neutrophils in bronchoalveolar lavages (BALs).

ovalbumin-induced asthma [2] = test: Ovalbumin-induced asthma, treatment of chronic asthma model (BAL cells, lung histology); type: in vivo, BALB/c mice; details: Mean ± SE
Method: • Twelve-week-old Balb/c mice were administered 10 μg (100 μl) ovalbumin (OVA) dissolved with 3 mg Al(OH)3 in 0.9% saline intraperitoneally (i.p.) on days 0, 7 and 14, and 10 μg (50 μl) OVA intranasally (i.n.) on days 20, 23, 25, 27, 29, 31, 34, 36, 37, 41, 43 and 45. For intranasal administration, mice were anesthetized with inhaled N-flurane and instilled with OVA i.n. with a micropipette. • Three-week-old BALB/c mice were sensitized (×3) with intra-peritoneal (i/p) injection (100 μl OVA solution, containing 0.3 mg OVA and 6.7 mg Al(OH)3, in 1 ml PBS) on days 0, 7 and 14. On days 14, 15, 17, 21 and 23 the mice were further sensitized with intranasal sprinklings (50 μl, each) of OVA in PBS solution containing 2 mg/ml OVA, as following: mice were anesthetized with inhaled N-flurane and instilled with OVA intra-nasally using a micropipette. Twenty-four hours after the last administration of OVA, the mice were sacrificed. Methacholine Challenge and Collection of Histologic Sections and Biochemical Samples
Either Zn-DFO, Ga-DFO, Zn-DFO and Ga-DFO 1:1 combination (herein metal complexes) or saline were administered as follows: on days −5, −1, 7 and 14, 1 mg/kg body weight metal complexes or saline were administered intraperitoneally (i.p.). On days 0, 6, 8, 13 and 15, 0.3 mg/kg body weight metal complexes or saline were administered i.p. On days 20, 23, 25, 27, 29, 31, 34, 36, 37, 41, 43 and 45, 0.3 mg/kg body weight metal complexes or saline were administered intranasally (i.n.). Twenty-four hours after the last sensitization, mice were anesthetized with urethane and the lungs were lavaged 4 times with 0.5 ml sterile PBS. Animals in the “control” group (non-asthmatic—saline treated, but not sensitized) (n=6) received saline injections and instillations, using the same regime as the asthmatic and treated animals. Animals of the “asthmatic” group (sensitized and saline-treated, rather than complex-treated) (n=6) received saline instead of the respective complex, under the same regime.
For the treatment of chronic asthma model, a similar experimental protocol was followed, with the following modifications: 1 mg/kg body weight metal complexes or saline were administered i.p. on day 0 (instead of days −5 and −1) and a further 0.3 mg/kg complexes or saline were administered on day 1. In this model, the effects of the complexes were investigated further by histological examination of lung sections stained with either haematoxylin-eosine or PAS/AB (periodic acid-Schiff/alcan blue).
as §3

[3] = tested on: salicylate hydroxylation to 2,3-DHBA; test: 2,3-DHBA assay in blood of high energy diet fed sand rats; type: in vivo, sand rat (Psammomis obesus); details: 2.5 mg/kg i.p. three times a week
Method: To measure 2,3-DHBA the animals were injected i.p. with 100 mg/kg salicylate in saline buffer. As a product of salicylate hydroxylation, the 2,3-DHBA was quantified using HPLC coupled with electrochemical detection (HPLC-ECD), using a Varian 5000 liquid chromatograph (Varian Analytical Instruments, Walnut Creek, Calif., USA) equipped with a Rheodyne 7125 sample injector (20 μl loop; Rheodyne L. P., Rohnert Park, Calif., USA). The column used for separation of salicylate and DHBA was a 250×4 mm LiChrospher 100RP-18, 5 μm (Merck, Darmstadt, Germany). The chromatograms were recorded using a PC-based data acquisition and processing system (EZChrom Elite, San-Ramon, Calif., USA).
as §2, with “The retina and lens were collected for biochemical analysis of the concentration of ferritin, thioredoxin-1 (Trx) and thioredoxin reductase-1 (TrxR), total lens protein and methionine sulfoxide reductase (Msr) activity.” left out

[4] = Western Blotting, diabetes-induced decrease

CC(=O)N(O)CCCCCNC(=O)CCC(=O)N([O-])CCCCCNC(=O)CCC(=O)N([O-])CCCCCN.[Zn+2] [Zn-DFO, Zinc-desferrioxamine]
lens Msr activity (lens proteins; HPLC, diabetes-induced decrease): partial, but statistically significant restoration | lens concentration of Trx (lens proteins; [4]): partial, but statistically significant restoration | lens concentration of TrxR (lens proteins; [4]): partial, but statistically significant restoration | lens concentration of actin (lens proteins; [4]): partial, but statistically significant restoration | total lens protein concentration (Bradford assay) (lens proteins; diabetes-induced decrease): partly prevented this decrease | decrease in lens ferritin level (lens proteins; versus diabetic animals): 3.8 fold | lung ferritin level (ovalbumin-induced asthma [1]): 0.6 ± 0.2 µg/mg | Eosinophils in BAL fluid (ovalbumin-induced asthma [2]): 0.3 ± 0.05^# 10^4 cells/ml | Lymphocytes in BAL fluid (ovalbumin-induced asthma [2]): 0.2 ± 0.05^# 10^4 cells/ml | Macrophages in BAL fluid (ovalbumin-induced asthma [2]): 3.0 ± 0.2^# 10^4 cells/ml | Neutrophils in BAL fluid (ovalbumin-induced asthma [2]): 0.2 ± 0.05^# 10^4 cells/ml | Total WBC in BAL fluid (ovalbumin-induced asthma [2]): 4.0 ± 0.3^# 10^4 cells/ml | 2,3-DHBA blood concentration [3]: maintained almost baseline values
